Assay results published in US7595056B1, “Methods of rejuvenating Leydig cells and enhancing testosterone production in a male subject” (University of Tennessee Research Foundation, priority 2002, dated 2009).
“Also recorded” adds a separate entry of the source. Each block holds one compound with its values, some of them ahead of it.

Tests used:
Leydig cells [1] = settings: Leydig cells isolated from 60 days old rats, in vitro; cited from earlier work
[2] = tested on: testis of Brown Norway rats; test: Microscopy and stereology of the testis of aged Brown Norway rats treated 4 weeks with LH, T4 or LH+T4; format: in vivo, Brown Norway rat
Description: (§1) Male Brown Norway rats aged 3, 6, 12 (n=8 per group; 3M, 6M, and 12M, respectively), and 18 months (M) (n=32; 18M) were purchased from Harlan (Madison, Wis., United States of America). The 18M rats were divided equally into four groups (n=8 per group). Under deep inhalation anesthesia (METOFANE™; Malincroft Veterinary, Inc., Mundelein, Ill., United States of America), the four groups of 18M rats were implanted subdermally with ALZET™ mini-osmotic pumps (model 2ML4; Alza Corporation, Palo Alto, Calif., United States of America), containing saline (control), LH (24 μg/day; National Hormone and Pituitary Program, Los Angeles, Calif., United States of America), thyroxine (T4; 5 μg/day; Sigma, St. Louis, Mo., United States of America), and LH and T4 (LH+T4; two pumps, 24 […] of T4), respectively, for 4 weeks (to 19 months [19M] of age). These doses of LH (Mendis-Handagama et al., (1998) Tissue Cell 30:64-73) and thyroid hormone (Ariyaratne et al., (2000) Biol. Reprod. 63:1115-1123) were used based on previously published studies. Rats were maintained under conditions of controlled temperature (25° C.) and lighting (14 hour/10 hour light/dark cycle) and were housed individually (one rat per cage). The animals were fed with Agway PROLAB™ rat formula (Agway, Syracuse, N.Y., United States of America) and water ad libitum until they were sacrificed. The animal protocol employed (No. 488) meets the guidelines of the National Institutes of Health and was approved by the University of Tennessee Animal Care and Concerns Committee.
Pumps were filled with either saline, LH, or T4, and were primed in saline for 3 hours before implantation so that they would deliver their contents immediately on subdermal implantation into the interscapular region. The LH+T4 rats received two pumps each, one containing LH and one containing T4; the other rats received one pump containing either saline, LH, or T4. After 4 weeks of treatment, rats were sacrificed. In addition, implanted pumps were removed and examined to verify that they had delivered their contents as expected.
One testis of each rat in the 3M, 6M, 12M, and 19M age groups was removed, cleaned of fat, and weighed on a Mettler H54 balance to obtain the fresh testis weight. Using the flotation technique (Mendis-Handagama et al., (1988) Am. J. Anat. 181:12-22; Mori & Christensen, (1980) J. Cell. Biol. 84:340-354; and Mendis-Handagama & Ewing, (1990) J. Microsc. (Oxf) 159:73-82), the specific gravity of the fresh testis was determined as described previously (Mori & Christensen, (1980) J. Cell. Biol. 84:340-354 and Mendis-Handagama & Ewing, (1990) J. Microsc. (Oxford) 159:73-82), and the fresh testis volume was calculated by dividing the fresh testis weight by the specific gravity (in metric units, specific gravity equals density). This measurement is required to express Leydig cell numbers per testis, because numerical density is obtained as a number per unit volume of the testis. The testis was then decapsulated, and the entire testis was incubated for 3 hours in the same medium as described previously (Ariyaratne et al., (2000) Biol. Reprod. 63:1115-1123; Mendis-Handagama et al., (1998) Biol. Reprod. 59:351-357; Mendis-Handagama et al., (1990) J. Androl. 11:548-554; Ariyaratne et al., (2000) Biol. Reprod. 63:493-502; and Ariyaratne & Mendis-Handagama, (2000) Biol. Reprod. 62:158-168) to determine the LH-stimulated testosterone-secretory capacity per testis in vitro. Testosterone levels in the incubation medium were measured by RIA using commercially available kits (COAT-A-COUNT™), and the details of the assay are given above (see Laboratory Example 4). Testosterone-secretory capacity per Leydig cell was calculated by dividing the testosterone-secretory capacity per testis by the number of Leydig cells per testis. […]

Leydig cells [3] = test: LH-stimulated testicular steroidogenesis in vitro (testis of treated rats incubated 3 hours, testosterone by RIA); format: in vivo, Brown Norway rat
Description: Male Brown Norway rats aged 3, 6, 12 (n=8 per group; 3M, 6M, and 12M, respectively), and 18 months (M) (n=32; 18M) were purchased from Harlan (Madison, Wis., United States of America). The 18M rats were divided equally into four groups (n=8 per group). Under deep inhalation anesthesia (METOFANE™; Malincroft Veterinary, Inc., Mundelein, Ill., United States of America), the four groups of 18M rats were implanted subdermally with ALZET™ mini-osmotic pumps (model 2ML4; Alza Corporation, Palo Alto, Calif., United States of America), containing saline (control), LH (24 μg/day; National Hormone and Pituitary Program, Los Angeles, Calif., United States of America), thyroxine (T4; 5 μg/day; Sigma, St. Louis, Mo., United States of America), and LH and T4 (LH+T4; two pumps, 24 […] of T4), respectively, for 4 weeks (to 19 months [19M] of age). […]
One testis of each rat in the 3M, 6M, 12M, and 19M age groups was removed, cleaned of fat, and weighed on a Mettler H54 balance to obtain the fresh testis weight. Using the flotation technique (Mendis-Handagama et al., (1988) Am. J. Anat. 181:12-22; Mori & Christensen, (1980) J. Cell. Biol. 84:340-354; and Mendis-Handagama & Ewing, (1990) J. Microsc. (Oxf) 159:73-82), the specific gravity of the fresh testis was determined as described previously (Mori & Christensen, (1980) J. Cell. Biol. 84:340-354 and Mendis-Handagama & Ewing, (1990) J. Microsc. (Oxford) 159:73-82), and the fresh testis volume was calculated by dividing the fresh testis weight by the specific gravity (in metric units, specific gravity equals density). […] Testosterone levels in the incubation medium were measured by RIA using commercially available kits (COAT-A-COUNT™), and the details of the assay are given above (see Laboratory Example 4). Testosterone-secretory capacity per Leydig cell was calculated by dividing the testosterone-secretory capacity per testis by the number of Leydig cells per testis. […]

[4] = RIA for serum LH, T4, triiodothyronine and testosterone of treated rats; format: in vivo, Brown Norway rat
Description: as §1, with “Committee. […]” for “Committee.”
Serum LH hormone was quantified using a commercially available rat luteinizing hormone (rLH) kit (Amersham Pharmacia Biotech, Piscataway, N.J., United States of America). […]
The PC SAS software (SAS Institute Inc., Cary, N.C., United States of America) was used to analyze the data. Results are expressed as mean± standard error of the mean (SEM). […]

rat TSH (rat) = rat TSH (rat) (UniProt P11962); test: RIA, rat LH kit (Amersham Pharmacia Biotech); cross-reactivity against rat LH as reference
[5] = biological target: rat adenocorticotropic hormone (ACTH) (rat) (UniProt P01194); test: as above
[6] = biological target: rat follicle stimulating hormone (FSH) (rat) (UniProt P11962); test: as above
rat growth hormone (rat) = rat growth hormone (rat) (UniProt P01244); test: as above
rat prolactin (rat) = rat prolactin (rat) (UniProt P01237); test: as above
[7] = 19M Brown Norway rats after 4 weeks subdermal osmotic pump (LH 24 μg/day, T4 5 μg/day), mean, n=8

UniProt P01237, sequence (P01237 30-226 limits assumed): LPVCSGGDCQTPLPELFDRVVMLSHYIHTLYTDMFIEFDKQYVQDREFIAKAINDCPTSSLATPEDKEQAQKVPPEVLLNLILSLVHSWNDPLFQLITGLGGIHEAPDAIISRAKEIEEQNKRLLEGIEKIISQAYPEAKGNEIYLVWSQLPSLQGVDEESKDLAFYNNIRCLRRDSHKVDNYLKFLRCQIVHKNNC
UniProt P01244, sequence (P01244 27-216 limits assumed): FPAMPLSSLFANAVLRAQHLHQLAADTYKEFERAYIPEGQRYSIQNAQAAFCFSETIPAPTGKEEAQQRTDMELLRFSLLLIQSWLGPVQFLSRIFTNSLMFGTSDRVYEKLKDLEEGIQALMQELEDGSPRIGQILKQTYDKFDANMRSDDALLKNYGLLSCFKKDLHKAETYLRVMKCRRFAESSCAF
UniProt P01194, sequence (P01194 124-162 limits assumed): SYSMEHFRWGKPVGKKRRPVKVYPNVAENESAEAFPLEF

Compound: N[C@@H](Cc1cc(I)c(Oc2ccc(O)c(I)c2)c(I)c1)C(=O)O [T3, L-3,5,3′-triiodothyronine]
Effect on testosterone secretion of Leydig cells (Leydig cells [1]): increased testosterone secretion of Leydig cells in a dose dependent fashion up to 50 ng | Minimum effective dose for testosterone production (Leydig cells [1]): 25 ng

Serum LH levels, comparison between groups in words ([4]; 19M treated rats versus 3M through 12M rats): reduced significantly
Compound: N[C@@H](Cc1cc(I)c(Oc2cc(I)c(O)c(I)c2)c(I)c1)C(=O)O [T4, L-3,5,3′,5′-tetraiodothyronine]
Average volume of a Leydig cell [2, 7]: 1998 μm^3 | Leydig cell number per Testis [2, 7]: 21.80 10^6 | Volume density of Leydig cells [2, 7]: 2.38% | Absolute volume of Leydig cells per testis, comparison between groups in words ([2]; 19M treated rats versus 19M control and younger rats, P<0.05): higher values compared to 19M control rats; also recorded: not significantly different from those of 12M rats | Average volume of a Leydig cell, comparison between groups in words ([2]; 19M treated rats versus younger rats, P<0.05): significantly lower than those in 3M and 6M rats; also recorded: partially effective | Size of Leydig cell profiles in tissue sections ([2]; light microscopy, 19M treated rats versus 19M control rats): much larger than those in 19M control rats | Mean Absolute Volume of Leydig cells ([2]; per testis, 19M Brown Norway rats after 4 weeks subdermal osmotic pump (LH 24 μg/day, T4 5 μg/day), mean, n=8): 43.57 mm^3 | LH-stimulated testosterone-secretory capacity per testis and per Leydig cell in vitro, comparison between groups in words (Leydig cells [3]; 19M treated rats versus younger rats): comparable to those in 12M rats | Mean Testosterone-Secretory Capacity Per testis (Leydig cells [3]; LH-stimulated, in vitro, 3 hours incubation, testis of 19M rats treated 4 weeks (LH 24 μg/day, T4 5 μg/day), mean, n=8): 14,748 ng | Mean Testosterone-Secretory Capacity Per Leydig cell (Leydig cells [3]; LH-stimulated, in vitro, capacity per testis divided by number of Leydig cells per testis, 19M rats treated 4 weeks): 0.67 pg | Mean Serum Testosterone [4, 7]: 73 ng/dL | Serum testosterone levels, comparison between groups in words ([4]; 19M treated rats versus 19M controls and younger rats, P<0.05): significantly greater than 19M controls; also recorded: significantly lower than those in 3M through 12M rats; also recorded: not sufficient to upgrade the serum testosterone levels in 19M rats to those of 3M and 6M rats

cross-reactivity (rat TSH (rat)): 0.66% | cross-reactivity [5]: < 0.00092% | cross-reactivity [6]: < 0.016% | cross-reactivity (rat growth hormone (rat)): 0.1% | cross-reactivity (rat prolactin (rat)): < 0.8%
Compound: antibody for LH of the commercially available rat luteinizing hormone (rLH) RIA kit (Amersham Pharmacia Biotech)
